Series [1] in a line: GSK inMac assay, host cell toxicity readout (LD MAC). It is filed as cell-based, human. To be noted: human. On the procedure: (§1) The intramacrophage Leishmania donovani activity assay (LD AMMAC) at GlaxoSmithKline was performed as described.
(§2) Given the literature precedents described above and the apparent narrow tolerance for R^3 substitutions observed in the primary screen compounds, a thorough and methodical assessment was undertaken of tolerated groups at the three points of diversity (R^1/R^2/R^3) for the core. At this stage of the project, all analogues were assessed using a battery of assays performed in-house at GlaxoSmithKline. For antileishmanial activity, GSK's inMac assay was utilized. This assay provides two readouts of compound potency: average number of intracellular amastigotes per infected cell (AMMAC) EC50, percentage of infected cells per well (INFCELL) EC50, as well as a toxicity output derived from the number of host cells (MAC EC50). In addition, compounds were assessed for toxicity against HepG2 cells (HEPG2 EC50). Here, AMMAC EC50 values were focused on for relative potency assessments. […] It should be noted that for all compounds assessed in this project, the measured toxicity against THP-1 macrophages either equaled or exceeded that of HepG2 hepatocytes, therefore the MAC SI is used here as the more conservative estimate of therapeutic index.

Series [2] has as its system L. donovani intracellular amastigotes infecting THP-1 macrophages. Briefly: GSK intramacrophage L. donovani assay (LD AMMAC, inMac; Assay Conditions C). It is filed as cell-based. To be noted: Leishmania donovani. On the procedure: Assay Conditions C: The intramacrophage Leishmania donovani activity assay was performed as described in Antimicrob Agents Chemother (2013) 57(7):2913-22.
as §1, §2

The mark [3] stands for this setting: footnote c, read-out: THP-1 Host Cell CC50.
Where [4] appears, read: THP-1 cells, values marked c, read-out: L. donovani amastigotes EC50 (THP-1 cells).

Like-named read-outs stand apart in the source and are kept apart here.

As usually defined, the CC50 is the concentration giving 50% cytotoxicity. Usually EC50 stands for the concentration needed to bring the measured effect to its halfway point.

As to `CC(C)Cc1n[nH]c2c1C(c1ccc(F)cc1)N(c1ccc(C#N)cc1)C2=O` (stereo not shown) [BUCMD00807], the CC50 in series [1] (setting [3]) was found to be 25.1 µM. For the same molecule, in series [2] (setting [4]), the EC50 worked out at 12.6 µM.
Taken in the same sequence, the figures for `COc1ccc(N2C(=O)c3[nH]nc(CC(C)C)c3C2c2ccc(F)cc2)cn1` (stereo not shown) [BUCMD00808] were greater than 50 µM and 10 µM.
Taken in the same sequence, the figures for `CCn1nc(CC(C)C)c2c1C(=O)N(c1ccc(OC)cc1)C2c1ccc(F)cc1` (stereo not shown) [BUCMD00809] were 39.8 µM and 4 µM.
Taken in the same sequence, the figures for `CCn1nc2c(c1CC(C)C)C(c1ccc(F)cc1)N(c1ccc(OC)cc1)C2=O` (stereo not shown) [BUCMD00810] were greater than 50 µM and 20 µM.
As for `COc1ccc(N2C(=O)c3[nH]nc(-c4ccc(OCc5ccccc5)cc4)c3C2c2ccc(F)cc2)cc1` (stereo not shown) [BUCMD00811], the 50% cytotoxic concentration (CC50) in series [1] (setting [3]) is 15.8 µM. Also, the EC50 in series [2] (setting [4]) turned out to be 10 µM.
Taken in the same sequence, the figures for `COc1ccc(N2C(=O)c3[nH]nc(CC4CCCCC4)c3C2c2ccc(F)cc2)cc1` (stereo not shown) [BUCMD00812] were 20 µM and 3.2 µM.
Taken in the same sequence, the figures for `COCn1nc(CC(C)C)c2c1C(=O)N(c1ccc(OC)cc1)C2c1ccc(F)cc1` (stereo not shown) [BUCMD00813] were 31.6 µM and 12.6 µM.
Taken in the same sequence, the figures for `COCn1nc2c(c1CC(C)C)C(c1ccc(F)cc1)N(c1ccc(OC)cc1)C2=O` (stereo not shown) [BUCMD00814] were greater than 50 µM and 12.6 µM.
As to `CC(C)Cc1n[nH]c2c1C(c1ccc(F)cc1)N(c1ccc(-n3ccnc3)cc1)C2=O` (stereo not shown) [BUCMD00815], the CC50 in series [1] (setting [3]) was greater than 50 µM. In addition, the EC50 in series [2] (setting [4]) worked out at 2.5 µM.
Taken in the same sequence, the figures for `CC(C)Cc1n[nH]c2c1C(c1ccc(F)cc1)N(c1ccc(C(C)(C)C)cc1)C2=O` (stereo not shown) [BUCMD00816] were greater than 50 µM and 10 µM.
Taken in the same sequence, the figures for `CC(C)Cc1n[nH]c2c1C(c1ccc(F)cc1)N(C(CO)CO)C2=O` (stereo not shown) [BUCMD00817] were greater than 50 µM and greater than 50 µM.
Taken in the same sequence, the figures for `COc1ccc(N2C(=O)c3[nH]nc(CC(C)C)c3C2c2cccc(C(F)(F)F)c2)cc1` (stereo not shown) [CMLD007432] were 15.9 µM and 6.3 µM.
On to `CC(C)Cc1nn(-c2ccc(OC(F)(F)F)cc2)c2c1C(c1ccccc1)NC2=O` (stereo not shown) [CMLD009657], for which the cytotoxic concentration (CC50) in series [1] (host THP-1 cells) was no less than 50.1 µM. Further, the half-maximal effective concentration (EC50) in series [2] (values marked c: THP-1 cells, read-out: L. donovani amastigotes EC50 (μM, THP-1 or B10R cells)) is 12.6 µM.
On to `CC(C)Cc1n[nH]c2c1C(c1ccc(F)cc1)N(Cc1ccc(C(F)(F)F)cn1)C2=O` (stereo not shown) [CMLD010848], for which, in series [1] (setting [3]), the half-maximal cytotoxic concentration (CC50) was greater than 50 µM. Further, the EC50 in series [2] (setting [4]) was 39.8 µM.
Taken in the same sequence, the figures for `COc1ccc(N2C(=O)c3[nH]nc(CCc4ccccc4)c3C2c2ccc(F)cc2)cc1` (stereo not shown) [CMLD010849] were 25.1 µM and 6.3 µM.
Taken in the same sequence, the figures for `COc1cccc(N2C(=O)c3[nH]nc(CC(C)C)c3C2c2ccsc2)c1` (stereo not shown) [CMLD010880] were 39.8 µM and 20 µM.
Taken in the same sequence, the figures for `COc1cccc(N2C(=O)c3[nH]nc(CC(C)C)c3C2c2ccccc2Cl)c1` (stereo not shown) [CMLD010881] were 15.8 µM and 7.9 µM.
As to `COc1ccc(N2C(=O)c3[nH]nc(CC(C)C)c3C2C2CCN(Cc3ccccc3)CC2)cc1` (stereo not shown) [CMLD010882], the cytotoxic concentration (CC50) in series [1] (setting [3]) was 20 µM. For the same molecule, in series [2] (setting [4]), the EC50 was determined as 15.9 µM.
Taken in the same sequence, the figures for `COc1cncc(N2C(=O)c3[nH]nc(CC(C)C)c3C2c2ccc(F)cc2)c1` (stereo not shown) [CMLD010883] were greater than 50 µM and 31.6 µM.
Taken in the same sequence, the figures for `CC(C)Cc1n[nH]c2c1C(c1ccc(F)cc1)N(c1ccc(OC(F)(F)F)cc1)C2=O` (stereo not shown) [CMLD010885] were 7.9 µM and 3.2 µM.
Taken in the same sequence, the figures for `COc1ccc(N2C(=O)c3[nH]nc(CC(C)C)c3C2c2cncc(OC)c2)cc1` (stereo not shown) [CMLD010886] were 20 µM and 10 µM.
Regarding `COc1ccc(N2C(=O)c3[nH]nc(CC(C)C)c3C2c2ccncn2)cc1` (stereo not shown) [CMLD010887], the CC50 in series [1] (setting [3]) is greater than 50 µM. Also, the EC50 in series [2] (setting [4]) is greater than 50 µM.
`COc1ccc(N2C(=O)c3[nH]nc(CC(C)C)c3C2c2ccc(Br)cc2)cc1` (stereo not shown) [CMLD010889]: in series [1] (setting [3]), the CC50 came to 15.9 µM. The 50% effective concentration (EC50) in series [2] (setting [4]) was 6.3 µM.
